The record followed here is US12577226B2, “Compounds for treating Huntington's disease” (PTC THERAPEUTICS, INC., priority 2019, dated 2026).

Bounds are passed on as bounds.

Broadly, the IC50 is the midpoint of a concentration-inhibition curve.

In this assay the test system is Endogenous Huntingtin Protein (capture with MW1 (expanded polyglutamine) or MAB2166 antibody). The assay is described as follows: Endogenous Huntingtin Protein Assay (ELISA-based Meso Scale Discovery electrochemiluminescence assay). The format is cell-based. The settings on record: MSD electrochemiluminescence platform. Here is the method:
Compounds of Formula (I), Formula (II), or Formula (III) were tested using the Meso Scale Discovery (MSD) Assay provided in International Application No. PCT/US2016/066042, filed on Dec. 11, 2016 and claiming priority to U.S. Provisional Application U.S. 62/265,652 filed on Dec. 10, 2015, the entire contents of which are incorporated herein by reference.
The Endogenous Huntingtin Protein assay used in Example 1 was developed using the ELISA-based MSD electrochemiluminescence assay platform.
Meso Scale Discovery (MSD) 96-well or 384-well plates were coated overnight at 4° C. with MW1 (expanded polyglutamine) or MAB2166 monoclonal antibody (for capture) at a concentration of 1 μg/mL in PBS (30 μL per well). Plates were then washed three times with 300 μL wash buffer (0.05% Tween-20 in PBS) and blocked (100 μL blocking buffer; 5% BSA in PBS) for 4-5 hours at room temperature with rotational shaking and then washed three times with wash buffer.
Samples (25 μL) were transferred to the antibody-coated MSD plate and incubated overnight at 4° C. After removal of the lysates, the plate was washed three times with wash buffer, and 25 μL of #5656S (Cell signaling; rabbit monoclonal) secondary antibody (diluted to 0.25 μg/mL in 0.05% Tween-20 in blocking buffer) was added to each well and incubated with shaking for 1 Hour at room temperature. Following incubation with the secondary antibody, the wells were rinsed with wash buffer after which 25 μL of goat anti-rabbit SULFO TAG secondary detection antibody (required aspect of the MSD system) (diluted to 0.25 μg/mL in 0.05% Tween-20 in blocking buffer) was added to each well and incubated with shaking for 1 hour at room temperature. After rinsing three times with wash buffer, 150 μL of read buffer T with surfactant (MSD) were added to each empty well, and the plate was imaged on a SI 6000 imager (MSD) according to manufacturers' instructions provided for 96- or 384-well plates.
“5-(2,8-dimethylimidazo[1,2-b]pyridazin-6-yl)-2-(6-{[(3R,4S)-3-fluoro-2,2,6,6-tetramethylpiperidin-4-yl]oxy}pyridazin-3-yl)pyridin-3-ol and 5-(2,8-dimethylimidazo[1,2-b]pyridazin-6-yl)-2-(6-{[(3S,4R)-3-fluoro-2,2,6,6-tetramethylpiperidin-4-yl]oxy}pyridazin-3-yl)pyridin-3-ol [Compound 47]” came in with an IC50 of no more than 100 nM.

In the case of “5-(7-fluoro-2-methyl-2H-indazol-5-yl)-2-{6-[(3R,5S)-3,4,5-trimethylpiperazin-1-yl]pyridazin-3-yl}pyridin-3-ol and 5-(7-fluoro-2-methyl-2H-indazol-5-yl)-2-{6-[(3S,5R)-3,4,5-trimethylpiperazin-1-yl]pyridazin-3-yl}pyridin-3-ol [Compound 91]”, the IC50 was no more than 100 nM. In the case of “5-(8-ethyl-2-methylimidazo[1,2-a]pyridin-6-yl)-2-(6-{[(3R,4S)-3-fluoro-2,2,6,6-tetramethylpiperidin-4-yl]oxy}pyridazin-3-yl)pyridin-3-ol and 5-(8-ethyl-2-methylimidazo[1,2-a]pyridin-6-yl)-2-(6-{[(3S,4R)-3-fluoro-2,2,6,6-tetramethylpiperidin-4-yl]oxy}pyridazin-3-yl)pyridin-3-ol [Compound 45]” it was no more than 100 nM; in that of “5-(8-ethyl-2-methylimidazo[1,2-b]pyridazin-6-yl)-2-(6-{[(3R,4S)-3-fluoro-2,2,6,6-tetramethylpiperidin-4-yl]oxy}pyridazin-3-yl)pyridin-3-ol and 5-(8-ethyl-2-methylimidazo[1,2-b]pyridazin-6-yl)-2-(6-{[(3S,4R)-3-fluoro-2,2,6,6-tetramethylpiperidin-4-yl]oxy}pyridazin-3-yl)pyridin-3-ol [Compound 60]”, no more than 100 nM; in that of “5-[(2-methylpyrimidin-5-yl)amino]-2-{6-[(3R)-3-(propan-2-yl)piperazin-1-yl]pyridazin-3-yl}pyridin-3-ol and 5-[(2-methylpyrimidin-5-yl)amino]-2-{6-[(3S)-3-(propan-2-yl)piperazin-1-yl]pyridazin-3-yl}pyridin-3-ol [Compound 134]”, 500 to 1000 nM. With “5-[(5-methylpyrazin-2-yl)amino]-2-{6-[(3R)-3-(propan-2-yl)piperazin-1-yl]pyridazin-3-yl}pyridin-3-ol and 5-[(5-methylpyrazin-2-yl)amino]-2-{6-[(3S)-3-(propan-2-yl)piperazin-1-yl]pyridazin-3-yl}pyridin-3-ol [Compound 133]” the figure was no more than 100 nM; with “5-[(6-methylpyridin-3-yl)amino]-2-{6-[(3R)-3-(propan-2-yl)piperazin-1-yl]pyridazin-3-yl}pyridin-3-ol and 5-[(6-methylpyridin-3-yl)amino]-2-{6-[(3S)-3-(propan-2-yl)piperazin-1-yl]pyridazin-3-yl}pyridin-3-ol [Compound 127]”, no more than 100 nM; with “6-[6-(6-{[(3R,4S)-3-fluoro-2,2,6,6-tetramethylpiperidin-4-yl]oxy}pyridazin-3-yl)-5-hydroxypyridin-3-yl]-2-methylimidazo[1,2-a]pyridine-8-carbonitrile and 6-[6-(6-{[(3S,4R)-3-fluoro-2,2,6,6-tetramethylpiperidin-4-yl]oxy}pyridazin-3-yl)-5-hydroxypyridin-3-yl]-2-methylimidazo[1,2-a]pyridine-8-carbonitrile [Compound 59]”, no more than 100 nM.

Compound `Cn1cnc(-c2cnc(-c3ccc(O[C@@H]4CC(C)(C)NC(C)(C)[C@@H]4F)nn3)c(O)c2)cc1=O.Cn1cnc(-c2cnc(-c3ccc(O[C@H]4CC(C)(C)NC(C)(C)[C@H]4F)nn3)c(O)c2)cc1=O` (mixture of isomers) [Compound 42, 6-[6-(6-{[(3R,4S)-3-fluoro-2,2,6,6-tetramethylpiperidin-4-yl]oxy}pyridazin-3-yl)-5-hydroxypyridin-3-yl]-3-methylpyrimidin-4(3H)-one and 6-[6-(6-{[(3S,4R)-3-fluoro-2,2,6,6-tetramethylpiperidin-4-yl]oxy}pyridazin-3-yl)-5-hydroxypyridin-3-yl]-3-methylpyrimidin-4(3H)-one] registered an IC50 of 500 to 1000 nM. With `COc1cc(-c2cnc(-c3ccc(OC4CC(C)(C)NC(C)(C)C4F)nn3)c(O)c2)nn2cc(C)nc12` (mixture of isomers) [Compound 57, 2-(6-{[(3R,4S)-3-fluoro-2,2,6,6-tetramethylpiperidin-4-yl]oxy}pyridazin-3-yl)-5-(8-methoxy-2-methylimidazo[1,2-b]pyridazin-6-yl)pyridin-3-ol and 2-(6-{[(3S,4R)-3-fluoro-2,2,6,6-tetramethylpiperidin-4-yl]oxy}pyridazin-3-yl)-5-(8-methoxy-2-methylimidazo[1,2-b]pyridazin-6-yl)pyridin-3-ol] the figure was no more than 100 nM. With `Cn1cc2c(-c3cnc(-c4ccc(O[C@@H]5CC(C)(C)NC(C)(C)[C@@H]5F)nn4)c(O)c3)ccc(F)c2n1.Cn1cc2c(-c3cnc(-c4ccc(O[C@H]5CC(C)(C)NC(C)(C)[C@H]5F)nn4)c(O)c3)ccc(F)c2n1` (mixture of isomers) [Compound 58, 5-(7-fluoro-2-methyl-2H-indazol-4-yl)-2-(6-{[(3R,4S)-3-fluoro-2,2,6,6-tetramethylpiperidin-4-yl]oxy}pyridazin-3-yl)pyridin-3-ol and 5-(7-fluoro-2-methyl-2H-indazol-4-yl)-2-(6-{[(3S,4R)-3-fluoro-2,2,6,6-tetramethylpiperidin-4-yl]oxy}pyridazin-3-yl)pyridin-3-ol] the figure was 500 to 1000 nM; with `Cc1cn2cc(-c3cnc(-c4ccc(O[C@@H]5CC(C)(C)NC(C)(C)[C@@H]5F)nn4)c(O)c3)cc2c(C)n1.Cc1cn2cc(-c3cnc(-c4ccc(O[C@H]5CC(C)(C)NC(C)(C)[C@H]5F)nn4)c(O)c3)cc2c(C)n1` (mixture of isomers) [Compound 67, 5-(1,3-dimethylpyrrolo[1,2-a]pyrazin-7-yl)-2-(6-{[(3R,4S)-3-fluoro-2,2,6,6-tetramethylpiperidin-4-yl]oxy}pyridazin-3-yl)pyridin-3-ol and 5-(1,3-dimethylpyrrolo[1,2-a]pyrazin-7-yl)-2-(6-{[(3S,4R)-3-fluoro-2,2,6,6-tetramethylpiperidin-4-yl]oxy}pyridazin-3-yl)pyridin-3-ol], no more than 100 nM. With `Cc1cn2nc(-c3cnc(-c4ccc(O[C@@H]5CC(C)(C)NC(C)(C)[C@@H]5F)nn4)c(O)c3)cc(C#N)c2n1.Cc1cn2nc(-c3cnc(-c4ccc(O[C@H]5CC(C)(C)NC(C)(C)[C@H]5F)nn4)c(O)c3)cc(C#N)c2n1` (mixture of isomers) [Compound 68, 6-[6-(6-{[(3R,4S)-3-fluoro-2,2,6,6-tetramethylpiperidin-4-yl]oxy}pyridazin-3-yl)-5-hydroxypyridin-3-yl]-2-methylimidazo[1,2-b]pyridazine-8-carbonitrile and 6-[6-(6-{[(3S,4R)-3-fluoro-2,2,6,6-tetramethylpiperidin-4-yl]oxy}pyridazin-3-yl)-5-hydroxypyridin-3-yl]-2-methylimidazo[1,2-b]pyridazine-8-carbonitrile] the figure was no more than 100 nM. In turn, `CC1(C)C[C@@H](Oc2ccc(-c3ncc(-c4nc5cnccn5n4)cc3O)nn2)[C@@H](F)C(C)(C)N1.CC1(C)C[C@H](Oc2ccc(-c3ncc(-c4nc5cnccn5n4)cc3O)nn2)[C@H](F)C(C)(C)N1` (mixture of isomers) [Compound 72, 2-(6-{[(3R,4S)-3-fluoro-2,2,6,6-tetramethylpiperidin-4-yl]oxy}pyridazin-3-yl)-5-([1,2,4]triazolo[1,5-a]pyrazin-2-yl)pyridin-3-ol and 2-(6-{[(3S,4R)-3-fluoro-2,2,6,6-tetramethylpiperidin-4-yl]oxy}pyridazin-3-yl)-5-([1,2,4]triazolo[1,5-a]pyrazin-2-yl)pyridin-3-ol] had an IC50 of 100 to 500 nM.

`Cn1ccc(-c2cnc(-c3ccc(O[C@H]4CC(C)(C)NC(C)(C)[C@H]4F)nn3)c(O)c2)n1` (single isomer, unassigned) [Compound 7, 2-(6-{[(3R,4S)-3-fluoro-2,2,6,6-tetramethylpiperidin-4-yl]oxy}pyridazin-3-yl)-5-(1-methyl-1H-pyrazol-3-yl)pyridin-3-ol or 2-(6-{[(3S,4R)-3-fluoro-2,2,6,6-tetramethylpiperidin-4-yl]oxy}pyridazin-3-yl)-5-(1-methyl-1H-pyrazol-3-yl)pyridin-3-ol] yielded an IC50 of 100 to 500 nM. Take `CC1(C)C[C@H](Oc2ccc(-c3ncc(-n4ccnc4)cc3O)nn2)[C@H](F)C(C)(C)N1` (single isomer, unassigned) [Compound 9, 2-(6-{[(3R,4S)-3-fluoro-2,2,6,6-tetramethylpiperidin-4-yl]oxy}pyridazin-3-yl)-5-(1H-imidazol-1-yl)pyridin-3-ol or 2-(6-{[(3S,4R)-3-fluoro-2,2,6,6-tetramethylpiperidin-4-yl]oxy}pyridazin-3-yl)-5-(1H-imidazol-1-yl)pyridin-3-ol]: the IC50 lay in the range of 100 to 500 nM.
